One molecule from patent publication US20260306527A1, “PRMT INHIBITOR COMPOUNDS AND THE USES THEREOF” (Purdue Research Foundation, priority 2023, published 2026) can be followed below.

Entries after “also recorded” stand apart in the source; their conditions may differ.

Holding throughout (type): biochemical
Experiment [1] addresses T1, SETD7 (Homo sapiens, UniProt Q8WTS6).
T1 construct: H3-21 peptide as substrate
The experiment is described as follows: selectivity, SAHH-coupled assay SETD7. The settings on record: 100 μM. Here is the method:
(§1) A fluorescence-based SAHH-coupled assay was applied to study the effect of the compound on methyltransferase activity of NTMT1, SETD7, G9a, NNMT, tbPRMT7 and SAHH. For NTMT1, the assay was performed in a final well volume of 100 μL: 25 mM Tris (pH=7.5), 50 mM KCl, 0.01% Triton X-100, 5 μM.
(§2) SAHH, 0.1 μM NTMT1, 3 μM AdoMet, and 10 μM ThioGlo4. After incubation for 10 min with the inhibitor, reactions were initiated by the addition of 0.5 μM GPKRIA peptide, and the reaction was monitored for 15 min. For SETD7, the assay was performed in a final well volume of 100 μL: 25 mM potassium phosphate buffer (pH=7.6), 0.01% Triton X-100, 5 μM SAHH, 1 μM SETD7, 2 μM AdoMet, and 10 μM ThioGlo1. After incubation for 10 min with the inhibitor, reactions were initiated by the addition of 90 μM H3-21 peptide, and the reaction was monitored for 15 min. […] After incubation for 10 min with the inhibitor, reactions were initiated by the addition of 10 μM nicotinamide, and the reaction was monitored for 18 min. […] After incubation for 10 min with the inhibitor, reactions were initiated by the addition of 60 μM H4-21 peptide, and the reaction was monitored for 15 min. […]
(§3) All experiments were performed in duplicate. Fluorescence was monitored on a BMG CLARIOstar microplate reader with excitation at 380 nm and emission at 505 nm. […]

Experiment [2] has as its target PRMT3 (Homo sapiens, UniProt O60678). Briefly: selectivity of YD1113/YD1290 on PRMT panel, PRMT3. The note with it: vs YD1113. As to the method: (§4) The selectivity of compounds YD1113 and YD1290 on PRMTs were performed by Reaction Biology Corp.
(§5) Next, the selectivity of YD1113 was investigated on a panel of PRMTs at 10 μM.
(§6) After validating the benzyl urea moiety as an unconventional homocysteine mimic of SAH for PRMTs, it was hypothesized that incorporating the benzyl urea moiety into the original pan PRMT inhibitor II757 would build a potent bisubstrate inhibitor. […] To enable a stable tri-substitution, the sulfur atom with a nitrogen atom was replaced. YD1290 was synthesized following the reported methods 9, 15 and tested in a radioactivity assay for PRMTs (FIG. 6b).

Experiment [3] concerns the target PRMT8 (Homo sapiens, UniProt Q9NR22). Briefly: selectivity of YD1113/YD1290 on PRMT panel, PRMT8. The settings on record: vs YD1113. As to the method:
as §4, §5, §6

For experiment [4], the target named is T2, PRMT4 (Homo sapiens, UniProt Q86X55).
T2 sequence (Q86X55 1-608): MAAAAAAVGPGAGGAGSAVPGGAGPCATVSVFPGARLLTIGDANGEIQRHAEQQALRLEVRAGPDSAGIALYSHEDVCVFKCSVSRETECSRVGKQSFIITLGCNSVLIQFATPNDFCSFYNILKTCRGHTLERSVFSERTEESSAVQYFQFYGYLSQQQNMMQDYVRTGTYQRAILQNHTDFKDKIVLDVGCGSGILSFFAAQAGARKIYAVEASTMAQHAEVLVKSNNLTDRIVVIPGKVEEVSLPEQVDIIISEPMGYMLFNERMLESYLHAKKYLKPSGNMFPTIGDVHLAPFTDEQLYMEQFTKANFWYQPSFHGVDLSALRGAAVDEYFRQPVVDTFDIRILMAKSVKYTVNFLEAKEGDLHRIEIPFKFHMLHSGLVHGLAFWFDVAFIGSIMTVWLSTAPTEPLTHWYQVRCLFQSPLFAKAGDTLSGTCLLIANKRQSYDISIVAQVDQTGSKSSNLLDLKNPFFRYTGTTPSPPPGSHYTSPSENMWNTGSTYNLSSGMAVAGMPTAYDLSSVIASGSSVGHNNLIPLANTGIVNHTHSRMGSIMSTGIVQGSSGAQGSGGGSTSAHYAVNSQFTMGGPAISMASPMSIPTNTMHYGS
Briefly: selectivity of YD1113/YD1290 on PRMT panel, PRMT4. As to the method: as §4, §5, §6

Experiment [5] has as its system SAHH. The experiment is described as follows: selectivity, SAHH. The settings on record: 100 μM. As to the method: The effect of the inhibitors on the coupled enzyme, SAHH, was also evaluated. The assay was performed in a final well volume of 100 μL: 25 mM Tris (pH=7.5), 50 mM KCl, 0.01% Triton X-100, 0.1 μM SAHH, and 15 μM ThioGlo1. After incubation for 10 min with the compound, 0.5 μM SAH was added to initiate the reactions.
All experiments were performed in duplicate. Fluorescence was monitored on a BMG CLARIOstar microplate reader with excitation at 380 nm and emission at 505 nm.
To examine the selectivity, the inhibition of YD1290 on four inhouse methyltransferases, including protein N-terminal methyltransferase 1 (NTMT1), nicotinamide N-methyltransferase (NNMT), and two protein lysine methyltransferases PKMT (G9a and SETD7) were tested.

Experiment [6] deals with T3, NTMT1 (Homo sapiens, UniProt Q9BV86).
T3 construct: GPKRIA peptide as substrate
Briefly: selectivity, SAHH-coupled assay NTMT1. The settings on record: 100 μM. As to the method: as §1, §2, §3

Experiment [7] has as its target T4, PRMT1 (Homo sapiens, UniProt Q99873).
T4 construct: made in house
The experiment is described as follows: inhibition mechanism study on PRMT1, SAHH-coupled fluorescence. The note with it: role: inhibitor. Here is the method: The inhibition mechanism of YD1290 was study on PRMT1 with the fluorescence-based SAHH-coupled assay. Varying concentrations of SAM (from 5 to 40 μM) with 4 μM fixed concentration of H4-21 or varying concentration of H4-21 (from 4 to 32 μM) with 5 μM fixed concentration of SAM were included in reactions at concentration of YD1290 ranging from 0.15 nM to 10 μM.
All the IC50 values were determined in triplicate. Fluorescence was monitored on a BMG CLARIOstar microplate reader with excitation 380 nm and emission 505 nm. Data were processed by using GraphPad Prism software 8.0.
To confirm the potent inhibition activities of YD1290 on type I PRMTs resulting from bisubstrate characteristics, its inhibition mechanism on PRMT1 was determined through the SAHH-coupled fluorescence-based assay.

The test system of experiment [8] is PRMTs. Briefly: radioactivity assay, all tested PRMTs. Here is the method:
as §4, §6

The target of experiment [9] is PRMT6 (Homo sapiens, UniProt Q96LA8). Briefly: selectivity of YD1113/YD1290 on PRMT panel, PRMT6. The settings on record: vs YD1113. As to the method:
as §4, §5, §6

In experiment [10] the target is G9a (Homo sapiens, UniProt Q96KQ7). The experiment is described as follows: selectivity, SAHH-coupled assay G9a. The note with it: 100 μM. As to the method: as §1, §2, §3
Experiment [11] relates to type I PRMTs. The experiment is described as follows: inhibition of type I PRMTs (summary). As to the method:
as §4

Experiment [12] deals with T4, PRMT1. The experiment is described as follows: selectivity of YD1113/YD1290 on PRMT panel, PRMT1. The note with it: vs YD1113. Here is the method: as §4, §5, §6
Experiment [13] deals with T5, NNMT (Homo sapiens, UniProt P40261).
T5 construct: nicotinamide as substrate
The experiment is described as follows: selectivity, SAHH-coupled assay NNMT. The note with it: 100 μM. As to the method: as §1, §2, §3

T4 sequence (Q99873 whole entry, species assumed): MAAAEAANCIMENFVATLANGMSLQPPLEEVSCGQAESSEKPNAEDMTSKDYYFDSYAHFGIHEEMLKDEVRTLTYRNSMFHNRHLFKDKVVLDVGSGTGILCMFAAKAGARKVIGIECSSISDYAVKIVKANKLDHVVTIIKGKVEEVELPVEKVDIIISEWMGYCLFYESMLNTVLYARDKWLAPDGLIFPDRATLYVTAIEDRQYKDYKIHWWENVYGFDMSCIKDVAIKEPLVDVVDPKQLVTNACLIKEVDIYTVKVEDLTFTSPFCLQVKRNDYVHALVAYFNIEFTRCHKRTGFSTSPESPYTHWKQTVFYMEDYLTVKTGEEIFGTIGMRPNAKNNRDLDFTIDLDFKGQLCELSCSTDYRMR
T1 sequence (Q8WTS6 whole entry): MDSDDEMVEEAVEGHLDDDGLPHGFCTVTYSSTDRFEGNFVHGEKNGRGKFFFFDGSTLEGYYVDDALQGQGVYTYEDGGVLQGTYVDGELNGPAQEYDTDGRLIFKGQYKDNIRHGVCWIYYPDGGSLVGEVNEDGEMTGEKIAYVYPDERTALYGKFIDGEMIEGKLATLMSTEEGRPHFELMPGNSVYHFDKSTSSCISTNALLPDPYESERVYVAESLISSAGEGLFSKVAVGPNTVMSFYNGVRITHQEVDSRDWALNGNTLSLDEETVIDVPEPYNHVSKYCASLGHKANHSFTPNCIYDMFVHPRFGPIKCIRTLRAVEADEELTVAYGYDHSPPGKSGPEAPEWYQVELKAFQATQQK
Sequence of PRMT6 (Q96LA8 whole entry, species assumed): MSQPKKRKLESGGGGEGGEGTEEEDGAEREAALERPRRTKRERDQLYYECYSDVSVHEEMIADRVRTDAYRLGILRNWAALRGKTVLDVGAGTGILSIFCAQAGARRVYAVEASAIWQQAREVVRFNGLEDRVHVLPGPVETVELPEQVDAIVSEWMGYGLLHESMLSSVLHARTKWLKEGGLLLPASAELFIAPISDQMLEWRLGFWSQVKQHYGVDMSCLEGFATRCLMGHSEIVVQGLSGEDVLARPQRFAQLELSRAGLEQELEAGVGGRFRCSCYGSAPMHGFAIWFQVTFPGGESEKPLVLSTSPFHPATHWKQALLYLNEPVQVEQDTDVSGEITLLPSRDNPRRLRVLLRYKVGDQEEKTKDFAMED
Sequence of G9a (Q96KQ7 whole entry): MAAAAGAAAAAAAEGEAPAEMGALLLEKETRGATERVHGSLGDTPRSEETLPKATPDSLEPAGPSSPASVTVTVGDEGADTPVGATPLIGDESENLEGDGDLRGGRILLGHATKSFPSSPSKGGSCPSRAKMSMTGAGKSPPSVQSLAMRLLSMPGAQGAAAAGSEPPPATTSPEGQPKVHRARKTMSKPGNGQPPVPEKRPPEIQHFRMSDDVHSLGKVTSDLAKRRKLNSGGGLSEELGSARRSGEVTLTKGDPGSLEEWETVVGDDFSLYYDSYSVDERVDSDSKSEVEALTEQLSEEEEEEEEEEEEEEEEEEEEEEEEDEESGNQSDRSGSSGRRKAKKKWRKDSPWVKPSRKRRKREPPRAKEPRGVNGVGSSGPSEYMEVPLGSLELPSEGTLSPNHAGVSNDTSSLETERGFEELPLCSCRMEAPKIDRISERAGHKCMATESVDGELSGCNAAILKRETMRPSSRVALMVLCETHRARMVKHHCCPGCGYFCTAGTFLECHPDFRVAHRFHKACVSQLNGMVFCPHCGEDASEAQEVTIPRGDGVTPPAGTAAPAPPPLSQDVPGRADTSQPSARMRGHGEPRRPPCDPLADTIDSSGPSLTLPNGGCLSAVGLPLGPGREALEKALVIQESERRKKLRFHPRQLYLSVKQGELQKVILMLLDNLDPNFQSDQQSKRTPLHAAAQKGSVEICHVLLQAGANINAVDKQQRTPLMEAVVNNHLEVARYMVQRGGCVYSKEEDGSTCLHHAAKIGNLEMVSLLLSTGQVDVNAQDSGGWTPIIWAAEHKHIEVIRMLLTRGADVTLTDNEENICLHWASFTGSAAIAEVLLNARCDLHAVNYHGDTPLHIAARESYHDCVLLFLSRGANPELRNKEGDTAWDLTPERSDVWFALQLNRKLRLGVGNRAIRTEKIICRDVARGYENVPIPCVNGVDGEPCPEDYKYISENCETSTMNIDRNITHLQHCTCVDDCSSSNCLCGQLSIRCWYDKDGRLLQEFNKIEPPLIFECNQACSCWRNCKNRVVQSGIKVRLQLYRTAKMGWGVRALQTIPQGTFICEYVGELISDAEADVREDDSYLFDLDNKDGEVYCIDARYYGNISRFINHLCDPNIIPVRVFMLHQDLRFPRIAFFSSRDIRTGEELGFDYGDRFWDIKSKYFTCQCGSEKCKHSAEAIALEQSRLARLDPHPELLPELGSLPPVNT
T3 sequence (Q9BV86 whole entry): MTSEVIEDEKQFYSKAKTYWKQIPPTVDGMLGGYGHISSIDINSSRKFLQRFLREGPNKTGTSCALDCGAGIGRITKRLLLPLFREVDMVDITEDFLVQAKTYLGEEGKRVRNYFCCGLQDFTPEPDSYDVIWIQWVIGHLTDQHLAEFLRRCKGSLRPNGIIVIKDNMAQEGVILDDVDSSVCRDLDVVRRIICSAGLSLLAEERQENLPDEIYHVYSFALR
T5 sequence (P40261 whole entry): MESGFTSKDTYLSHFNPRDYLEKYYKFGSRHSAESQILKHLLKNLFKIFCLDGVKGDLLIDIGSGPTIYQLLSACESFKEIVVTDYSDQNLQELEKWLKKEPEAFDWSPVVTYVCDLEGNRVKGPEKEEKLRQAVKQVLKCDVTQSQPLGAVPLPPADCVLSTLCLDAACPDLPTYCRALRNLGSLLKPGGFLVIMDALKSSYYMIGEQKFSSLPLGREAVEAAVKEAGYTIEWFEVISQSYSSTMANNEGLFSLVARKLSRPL
Sequence of PRMT8 (Q9NR22 whole entry, species assumed): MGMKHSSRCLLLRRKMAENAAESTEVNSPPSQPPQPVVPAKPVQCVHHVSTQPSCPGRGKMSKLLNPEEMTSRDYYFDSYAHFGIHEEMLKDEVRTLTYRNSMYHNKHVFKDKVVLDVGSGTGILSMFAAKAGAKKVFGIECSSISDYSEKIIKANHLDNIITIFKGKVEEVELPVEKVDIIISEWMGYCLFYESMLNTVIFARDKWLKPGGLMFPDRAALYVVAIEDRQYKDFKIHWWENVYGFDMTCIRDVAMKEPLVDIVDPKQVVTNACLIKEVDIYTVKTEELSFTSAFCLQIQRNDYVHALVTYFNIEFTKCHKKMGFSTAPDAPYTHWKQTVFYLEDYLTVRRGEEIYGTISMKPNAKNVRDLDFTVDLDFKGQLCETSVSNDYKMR
Sequence of PRMT3 (O60678 whole entry, species assumed): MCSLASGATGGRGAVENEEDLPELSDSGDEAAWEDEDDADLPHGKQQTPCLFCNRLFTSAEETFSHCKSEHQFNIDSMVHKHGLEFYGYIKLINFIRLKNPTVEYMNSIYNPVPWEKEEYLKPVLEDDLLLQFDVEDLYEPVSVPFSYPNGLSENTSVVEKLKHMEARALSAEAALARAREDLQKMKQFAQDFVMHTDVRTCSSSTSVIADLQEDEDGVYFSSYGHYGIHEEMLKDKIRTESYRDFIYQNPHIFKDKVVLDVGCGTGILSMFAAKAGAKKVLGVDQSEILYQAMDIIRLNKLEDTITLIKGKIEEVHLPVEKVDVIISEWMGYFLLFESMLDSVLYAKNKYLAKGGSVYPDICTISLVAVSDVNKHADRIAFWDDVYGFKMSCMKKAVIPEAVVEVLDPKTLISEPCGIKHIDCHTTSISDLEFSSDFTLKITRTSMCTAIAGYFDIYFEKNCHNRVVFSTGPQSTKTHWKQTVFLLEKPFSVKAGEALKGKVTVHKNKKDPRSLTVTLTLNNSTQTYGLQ

One may read the IC50 as the concentration needed to halve the response being measured. Low readings indicate greater potency in that assay, high ones weaker potency in that assay. Consider `N=C(NCCCN(CCNC(=O)NCc1ccccc1)C[C@H]1O[C@@H](n2cnc3c(N)ncnc32)[C@H](O)[C@@H]1O)Nc1cccc(Br)c1` [YD1290], for which the “inhibition of SETD7” value in [1] was “did not display any significant inhibition”. In addition, the “fold potency to PRMT3 compared to YD1113” value in experiment [2] is on record as more than 80 fold. Further, the “fold potency to PRMT8 compared to YD1113” value in experiment [3] is listed as more than 80 fold. In addition, the PRMT4 activity result in experiment [4] (1.5 nM, radioactivity assay) was “completely abolished PRMT4 activity”. Moreover, the “fold potency to PRMT4 compared to YD1113” value in experiment [4] (vs YD1113) was more than 80 fold. For the same molecule, the “inhibition of SAHH” value in experiment [5] is “did not display any significant inhibition”. Further, in [6], the “inhibition of NTMT1” value was “did not display any significant inhibition”. The “inhibition mechanism vs peptide substrate, PRMT1” value in [7] (H4-21 4 to 32 μM, SAM 5 μM fixed) is listed as “slightly increased when the ratio of peptide/Km increased; also recorded: peptide-site competitive inhibitor of PRMT1”. The “inhibition mechanism vs SAM, PRMT1” value in [7] (SAM 5 to 40 μM, H4-21 4 μM fixed) is on record as “SAM-site competitive inhibitor of PRMT1”. Also, the “potency to all tested PRMTs” value in [8] is listed as “demonstrated potency to all tested PRMTs”. Also, the “fold potency to PRMT6 compared to YD1113” value in experiment [9] is on record as more than 80 fold. In experiment [10], the “inhibition of G9a” value is reported as “did not display any significant inhibition”. The molecule further gave an IC50 in experiment [11] of less than 5 nM. For the same molecule, the “fold potency to PRMT1 compared to YD1113” value in experiment [12] is recorded as more than 80 fold. In addition, the “inhibition of NNMT” value in experiment [13] was “did not display any significant inhibition”.
